From ChEMBL document CHEMBL1201862, “PubChem BioAssay data set” (2004)
Activity calls are given as the source filed them.

Legend:
[1] = biological target: Protein-tyrosine kinase 2-beta (Homo sapiens, UniProt Q14289);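 also: potency of inhibitors of PYK2 kinase phosphorylation of poly-GT substrate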
[2] = Luminescence Cell-Based Dose Confirmation HTS to Identify Activators of 5'UTR Stem-Loop Driven Alpha-Synuclein mRNA Translation in H4 Neuroglioblastoma Cells. [Related pubchem assays: 1829 (Project Summary), 1814 (Primary HTS)]; format: functional
[3] = Luminescence Cell-Based Dose Response to Identify Activators of 5'UTR Stem-Loop Driven Prion Protein mRNA Translation in H4-C Neuroglioblastoma Cells. [Related pubchem assays: 1829 (Project Summary), 1814 (Primary HTS)]; format: functional
[4] = Luminescence Cell-Based Dose Confirmation to Identify Activators of 5'UTR Stem-Loop Driven Alpha-Synuclein mRNA Translation in H4 Neuroglioblastoma Cells. [Related pubchem assays: 1829 (Project Summary), 1814 (Primary HTS)]; format: functional
[5] = Luminescence Cell-Based Dose Response to Identify Activators of Luciferase Translation or Activity in H4-C Neuroglioblastoma Cells. [Related pubchem assays: 1829 (Project Summary), 1814 (Primary HTS)]; format: functional
[6] = Luminescence Cell-Based Dose Response HTS to Identify Activators of Luciferase Translation or Activity in H4 […] Cells. [Related pubchem assays: 1829 (Project Summary), 1814 (Primary HTS)]; format: functional
H4 = assay: Luminescence Cell-Based Dose Response HTS to Identify Activators of 5'UTR Stem-Loop Driven Prion Protein mRNA Translation in H4 Neuroglioblastoma Cells. [Related pubchem assays: 1829 (Project Summary), 1814 (Primary HTS)]; format: functional; details: Homo sapiens
Beta-galactosidase = Beta-galactosidase (Escherichia coli, UniProt Q8VNN2); assay: detection-enzyme interference by beta-gal modulators – biochemical, E. coli enzyme, set 3, artefact control for CCR6 antagonist project, dose response (AID 504712); format: functional
Chain of Beta-galactosidase (Q8VNN2 whole entry): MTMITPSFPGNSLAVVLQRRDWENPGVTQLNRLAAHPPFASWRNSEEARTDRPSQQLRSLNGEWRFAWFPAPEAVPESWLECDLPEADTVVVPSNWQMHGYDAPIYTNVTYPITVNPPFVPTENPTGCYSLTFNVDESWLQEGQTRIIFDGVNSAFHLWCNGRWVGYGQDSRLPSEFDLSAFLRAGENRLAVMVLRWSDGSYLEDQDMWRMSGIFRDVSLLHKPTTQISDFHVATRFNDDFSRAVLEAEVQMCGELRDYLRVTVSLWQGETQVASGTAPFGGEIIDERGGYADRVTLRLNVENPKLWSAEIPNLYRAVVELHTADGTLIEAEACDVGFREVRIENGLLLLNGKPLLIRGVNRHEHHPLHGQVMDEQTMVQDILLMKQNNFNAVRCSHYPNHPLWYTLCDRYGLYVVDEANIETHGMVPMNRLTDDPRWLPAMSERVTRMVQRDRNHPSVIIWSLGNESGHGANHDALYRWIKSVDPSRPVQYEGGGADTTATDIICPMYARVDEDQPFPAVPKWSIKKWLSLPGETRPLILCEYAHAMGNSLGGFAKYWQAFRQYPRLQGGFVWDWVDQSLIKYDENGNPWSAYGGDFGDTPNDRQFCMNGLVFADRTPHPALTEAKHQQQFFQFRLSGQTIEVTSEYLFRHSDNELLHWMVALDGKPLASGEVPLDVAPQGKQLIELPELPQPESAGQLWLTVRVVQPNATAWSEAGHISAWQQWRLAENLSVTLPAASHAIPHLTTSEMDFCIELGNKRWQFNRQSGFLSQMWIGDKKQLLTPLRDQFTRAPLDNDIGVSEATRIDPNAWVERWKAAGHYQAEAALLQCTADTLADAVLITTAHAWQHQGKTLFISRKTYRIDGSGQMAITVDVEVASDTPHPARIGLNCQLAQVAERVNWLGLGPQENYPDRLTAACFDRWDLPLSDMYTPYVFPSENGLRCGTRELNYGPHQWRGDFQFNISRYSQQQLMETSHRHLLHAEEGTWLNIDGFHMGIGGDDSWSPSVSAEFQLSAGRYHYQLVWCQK

INS1 = assay: INS-1E survival protection against cytokine death – cell-based, luminescence, retest, dose response (AID 449756); format: functional; details: Rattus norvegicus;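 also: cell death triggered by IL-1 beta plus TNF-alpha plus IFN-gamma mixture; protective hits raise ATP signal compared with cytokine alone wells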
[7] = HEK-293T viability loss after treatment – luminescence, T-cell screen hits, cytotoxicity control for TCR NF-kB inhibitor project, dose response (AID 489026); format: functional, cell-based;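 also: cells exposed to compound about 14 hours before the viability readout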
[8] = biological target: Heat shock protein HSP 90-alpha (Homo sapiens, UniProt P07900); format: functional, organism-based
Kallikrein-7 = Kallikrein-7 (Homo sapiens, UniProt P49862); assay: Fluorescence Intensity-based biochemical primary high throughput dose response assay to identify activators of kallikrein-7 (K7) zymogen.
Chain of Kallikrein-7 (P49862 whole entry): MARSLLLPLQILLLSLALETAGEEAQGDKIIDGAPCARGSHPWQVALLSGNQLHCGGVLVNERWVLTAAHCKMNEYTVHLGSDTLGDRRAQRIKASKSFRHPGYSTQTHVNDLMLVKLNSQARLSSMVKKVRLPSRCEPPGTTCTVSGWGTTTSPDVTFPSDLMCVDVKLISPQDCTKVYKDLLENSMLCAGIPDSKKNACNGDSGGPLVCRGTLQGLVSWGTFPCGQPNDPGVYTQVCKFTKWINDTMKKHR

Cytochrome P450 3A4 = Cytochrome P450 3A4 (Homo sapiens, UniProt P08684); details: Potency;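 also: confirmatory qHTS run detecting inhibitors and substrates of CYP3A4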
Chain of Cytochrome P450 3A4 (P08684 whole entry): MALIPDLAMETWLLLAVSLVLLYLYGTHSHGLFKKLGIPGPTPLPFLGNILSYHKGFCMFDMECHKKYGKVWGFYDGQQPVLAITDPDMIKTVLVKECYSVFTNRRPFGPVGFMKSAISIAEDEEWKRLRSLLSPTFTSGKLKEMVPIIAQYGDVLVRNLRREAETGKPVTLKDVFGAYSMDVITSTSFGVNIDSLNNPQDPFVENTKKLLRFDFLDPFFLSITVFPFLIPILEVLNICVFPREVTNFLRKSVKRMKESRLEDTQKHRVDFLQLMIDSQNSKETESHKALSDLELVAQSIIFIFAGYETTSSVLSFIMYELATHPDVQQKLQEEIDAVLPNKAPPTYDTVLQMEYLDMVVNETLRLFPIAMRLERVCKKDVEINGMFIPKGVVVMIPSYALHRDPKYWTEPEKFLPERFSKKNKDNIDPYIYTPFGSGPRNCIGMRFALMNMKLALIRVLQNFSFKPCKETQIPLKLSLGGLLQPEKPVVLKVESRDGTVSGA

[9] = biological target: T1, Neuropeptides B/W receptor type 1 (Homo sapiens, UniProt P48145); assay: Fluorescence-based dose response cell-based high throughput screening assay to identify antagonists of the G-protein coupled receptor 7 (GPR7). [Related pubchem assays: 1952 (Screening assay (GPR7 antagonists).), 1880 (Summary AID.)]; format: functional
T1 sequence (P48145 whole entry): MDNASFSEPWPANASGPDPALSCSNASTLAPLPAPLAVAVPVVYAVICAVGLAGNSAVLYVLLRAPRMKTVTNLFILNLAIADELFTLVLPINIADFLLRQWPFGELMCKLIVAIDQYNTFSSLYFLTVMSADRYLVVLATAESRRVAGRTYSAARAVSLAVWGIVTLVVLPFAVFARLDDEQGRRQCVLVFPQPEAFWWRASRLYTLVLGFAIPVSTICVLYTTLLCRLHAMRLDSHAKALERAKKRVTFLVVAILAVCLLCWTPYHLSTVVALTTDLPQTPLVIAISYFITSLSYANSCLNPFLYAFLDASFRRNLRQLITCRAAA

[10] = biological target: Melanin-concentrating hormone receptor 1 (Homo sapiens, UniProt Q99705); assay: Fluorescence-based counterscreen for antagonists of the G-protein coupled receptor 7 (GPR7): cell-based high throughput dose response assay to identify antagonists of the melanin-concentrating hormone receptor 1 (MCHR1).; format: functional
Chain of Melanin-concentrating hormone receptor 1 (Q99705 whole entry, the tested form may be a part): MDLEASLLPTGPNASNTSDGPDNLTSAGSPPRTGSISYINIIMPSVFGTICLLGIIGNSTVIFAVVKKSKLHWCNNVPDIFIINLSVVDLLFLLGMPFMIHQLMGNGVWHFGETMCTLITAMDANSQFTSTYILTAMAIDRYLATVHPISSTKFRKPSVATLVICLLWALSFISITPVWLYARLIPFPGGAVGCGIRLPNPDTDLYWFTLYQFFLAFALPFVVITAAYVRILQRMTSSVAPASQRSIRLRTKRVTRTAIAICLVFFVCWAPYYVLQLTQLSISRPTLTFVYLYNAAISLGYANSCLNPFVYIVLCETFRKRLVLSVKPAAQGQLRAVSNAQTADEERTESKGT

[11] = biological target: T2, RNA-binding protein pos-1 (Caenorhabditis elegans, UniProt G5EF15); assay: disruptors of C. elegans POS-1 RNA interaction – biochemical, fluorescence polarization, dose response (AID 1964);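 also: purified POS-1 fused to maltose binding protein made in E. coli; potency of compounds blocking POS-1 binding to fluorescent RNA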
T2 sequence (G5EF15 whole entry): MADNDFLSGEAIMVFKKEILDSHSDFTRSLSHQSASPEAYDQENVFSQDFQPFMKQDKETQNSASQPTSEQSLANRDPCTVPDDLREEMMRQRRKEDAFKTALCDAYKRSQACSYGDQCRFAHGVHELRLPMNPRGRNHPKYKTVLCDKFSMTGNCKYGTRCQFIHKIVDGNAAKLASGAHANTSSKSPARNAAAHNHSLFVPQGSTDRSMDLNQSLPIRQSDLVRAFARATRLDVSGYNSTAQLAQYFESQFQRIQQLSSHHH

[12] = biological target: T3, Zinc finger protein mex-5 (Caenorhabditis elegans, UniProt Q9XUB2); assay: potency of MEX-5 RNA-binding blockers – biochemical, C. elegans, fluorescence polarization, dose response (AID 1960)
T3 sequence (Q9XUB2 whole entry): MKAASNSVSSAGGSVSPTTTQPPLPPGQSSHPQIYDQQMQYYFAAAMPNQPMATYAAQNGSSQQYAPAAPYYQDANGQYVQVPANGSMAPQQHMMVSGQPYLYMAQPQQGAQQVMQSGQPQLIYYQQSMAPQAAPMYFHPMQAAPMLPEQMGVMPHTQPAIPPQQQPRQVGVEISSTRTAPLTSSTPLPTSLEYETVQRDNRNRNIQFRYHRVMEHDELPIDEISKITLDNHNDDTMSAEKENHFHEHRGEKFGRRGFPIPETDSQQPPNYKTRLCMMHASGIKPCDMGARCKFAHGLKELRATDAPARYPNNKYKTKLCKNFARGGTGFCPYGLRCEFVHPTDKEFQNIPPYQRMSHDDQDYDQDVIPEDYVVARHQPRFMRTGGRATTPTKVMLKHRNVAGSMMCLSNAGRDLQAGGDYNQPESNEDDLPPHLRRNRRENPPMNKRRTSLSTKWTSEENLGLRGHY

[13] = HIV-1 Vif–A3G interaction blockers – biochemical, TR-FRET, GST-Vif 1-94, biotin-A3G peptide, dose response retest, primary screen (AID 1117319); format: functional;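 also: TR-FRET signal of purified GST-Vif binding a biotinylated A3G peptide; inhibitors lower the FRET signal by blocking Vif and A3G binding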
[14] = viability loss in THP-1 monocytes – THP-1 cells, cytotoxicity control for Vif-APOBEC3G degradation inhibitor project, dose response (AID 1117359); format: functional; details: THP-1
Cytochrome P450 2C9 = Cytochrome P450 2C9 (Homo sapiens, UniProt P11712)
Chain of Cytochrome P450 2C9 (P11712 whole entry): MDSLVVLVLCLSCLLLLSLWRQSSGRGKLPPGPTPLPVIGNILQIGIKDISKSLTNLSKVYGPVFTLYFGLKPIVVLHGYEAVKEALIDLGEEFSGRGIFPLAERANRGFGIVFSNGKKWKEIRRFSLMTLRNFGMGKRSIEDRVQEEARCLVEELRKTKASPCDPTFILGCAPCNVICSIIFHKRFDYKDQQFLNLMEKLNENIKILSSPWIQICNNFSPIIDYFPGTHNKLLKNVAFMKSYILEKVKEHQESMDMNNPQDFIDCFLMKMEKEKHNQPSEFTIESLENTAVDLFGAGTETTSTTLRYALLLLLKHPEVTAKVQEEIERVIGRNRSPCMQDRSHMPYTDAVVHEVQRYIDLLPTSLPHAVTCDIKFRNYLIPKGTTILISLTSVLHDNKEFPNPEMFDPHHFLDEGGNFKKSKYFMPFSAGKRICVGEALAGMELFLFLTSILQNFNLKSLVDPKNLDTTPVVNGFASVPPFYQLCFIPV

Vero = assay: viability of Vero cells under compound – cytotoxicity control for flavivirus capping enzyme inhibitors (AID 588742); format: functional; details: Chlorocebus sabaeus
[15] = biological target: DNA dC->dU-editing enzyme APOBEC-3G (Homo sapiens, UniProt Q9HC16); assay: Dose Response confirmation of small molecule APOBEC3G DNA Deaminase Inhibitors via a fluorescence-based single-stranded DNA deaminase assay. [Related pubchem assays (depositor defined):AID493012, AID493028]; format: functional
Chain of DNA dC->dU-editing enzyme APOBEC-3G (Q9HC16 whole entry): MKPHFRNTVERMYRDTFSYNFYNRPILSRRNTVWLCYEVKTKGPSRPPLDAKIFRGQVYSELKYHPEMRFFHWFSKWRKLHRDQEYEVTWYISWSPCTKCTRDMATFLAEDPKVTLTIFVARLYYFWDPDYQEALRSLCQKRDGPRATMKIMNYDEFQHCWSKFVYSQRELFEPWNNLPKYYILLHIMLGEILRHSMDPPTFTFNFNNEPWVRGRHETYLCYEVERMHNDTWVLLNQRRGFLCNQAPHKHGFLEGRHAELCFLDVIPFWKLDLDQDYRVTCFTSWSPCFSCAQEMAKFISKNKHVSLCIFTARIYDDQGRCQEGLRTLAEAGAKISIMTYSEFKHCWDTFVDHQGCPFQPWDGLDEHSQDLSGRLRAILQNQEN

[16] = alpha-synuclein stem-loop luciferase translation blockers – H4 neuroglioma cells, luminescence, confirmation (AID 1988); format: functional, cell-based
[17] = Luminescence Cell-Based Dose Response HTS to Identify Inhibitors of 5'UTR Stem-Loop Driven Prion Protein mRNA Translation in H4 Neuroglioblastoma Cells. [Related pubchem assays: 1827 (Project Summary), 1813 (Primary HTS)]; format: functional
[18] = luciferase reporter signal suppression in cells – H4 neuroglioma cells, luminescence, dose response (AID 1990); format: functional, cell-based
[19] = HEK293 Cytotoxicity Assay Measured in Cell-Based System Using Plate Reader - 7071-01_Inhibitor_Dose_CherryPick_Activity_Set2.; format: functional
HEK293 = assay: viability loss in HEK293T cells – cell-based, ATP luminescence, cherry-pick samples, cytotoxicity control, dose response (AID 687005); format: functional; details: Homo sapiens;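 also: cells exposed to compound for 48 hours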

Chain of Protein-tyrosine kinase 2-beta (Q14289 whole entry): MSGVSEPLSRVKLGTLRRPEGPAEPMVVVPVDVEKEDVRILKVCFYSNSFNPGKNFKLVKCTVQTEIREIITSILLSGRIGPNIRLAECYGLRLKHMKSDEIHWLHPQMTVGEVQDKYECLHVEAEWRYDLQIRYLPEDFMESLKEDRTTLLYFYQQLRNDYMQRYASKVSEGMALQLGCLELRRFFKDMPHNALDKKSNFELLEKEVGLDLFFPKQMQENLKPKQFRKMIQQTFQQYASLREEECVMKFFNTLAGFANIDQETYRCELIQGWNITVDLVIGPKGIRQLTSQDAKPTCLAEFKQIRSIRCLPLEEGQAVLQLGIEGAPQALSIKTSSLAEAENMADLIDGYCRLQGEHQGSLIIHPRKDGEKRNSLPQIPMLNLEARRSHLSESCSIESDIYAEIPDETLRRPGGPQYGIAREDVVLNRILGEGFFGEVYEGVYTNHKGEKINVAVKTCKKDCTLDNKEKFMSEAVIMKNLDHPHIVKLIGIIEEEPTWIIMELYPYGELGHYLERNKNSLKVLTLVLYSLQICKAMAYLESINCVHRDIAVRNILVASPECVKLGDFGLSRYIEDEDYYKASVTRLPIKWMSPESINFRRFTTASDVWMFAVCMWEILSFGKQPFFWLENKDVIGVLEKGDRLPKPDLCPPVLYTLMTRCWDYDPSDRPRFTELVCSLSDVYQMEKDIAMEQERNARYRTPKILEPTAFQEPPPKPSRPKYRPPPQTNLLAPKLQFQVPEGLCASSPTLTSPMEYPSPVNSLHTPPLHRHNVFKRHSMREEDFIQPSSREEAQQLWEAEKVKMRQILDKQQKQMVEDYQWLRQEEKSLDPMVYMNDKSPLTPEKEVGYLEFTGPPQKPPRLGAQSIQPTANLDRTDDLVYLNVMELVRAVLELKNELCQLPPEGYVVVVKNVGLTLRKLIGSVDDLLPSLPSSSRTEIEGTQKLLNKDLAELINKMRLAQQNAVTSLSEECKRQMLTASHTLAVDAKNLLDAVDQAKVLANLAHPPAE

## N#CCSc1nc(Nc2ccc3c(c2)OCO3)c2ccccc2n1
[1]
  IC50: > 69.5 µM (not active)

## CCc1cc2c(O)c(-c3ccon3)c(=N)oc2cc1OC
[2]
  EC50: 7.6 µM (active)
[3]
  EC50: > 12 µM (not active)
[4]
  EC50: 0.591 µM (active)
[5]
  EC50: 1.5 µM (active)
[6]
  EC50: 6.58 µM (active)
H4
  EC50: 31.8 µM (active)

## Cc1ccc(O)c(N=Nc2nccs2)c1
Beta-galactosidase
  IC50: > 66.6 µM (inactive)
INS1
  AC50: 1.15 µM (active)
[7]
  IC50: > 80 µM (inactive)
[8]
  AC50: 2.1 µM (active)

## Cc1ccccc1-n1c2nc(=O)n(C)c(=O)c-2cc2ccccc21
Kallikrein-7
  EC50: 85.3 µM (inactive)

## COc1ccc(-c2oc3cc(O[C@@H]4OC(CO)C(O)C(O)C4O)c(OC)c(O)c3c(=O)c2OC)cc1O (some centres undefined)
Cytochrome P450 3A4
  AC50: 25.1 µM (inconclusive)

## CCOC(=O)CSc1nnc(-c2ccc(S(=O)(=O)NCc3cccs3)cc2)o1
[9]
  IC50: > 43.8 µM (not active)
[10]
  IC50: > 43.8 µM (not active)

## CCN1CCN(Cc2c(O)ccc3c2O/C(=C\c2ccc(C)cc2)C3=O)CC1
[11]
  EC50: 38.9 µM (active)
[12]
  EC50: 111 µM (active)
Kallikrein-7
  EC50: 23.9 µM (inactive)

## Cc1ccc(CC(NC(=O)c2ccccc2)C(=O)NC(C)C(=O)O)cc1 (centres undefined)
[13]
  IC50: > 100 µM (active)

## CC(C)C1Oc2ccccc2C(=O)N(CC(=O)c2ccc3c(c2)OCCO3)C1=O (centres undefined)
[2]
  EC50: 0.131 µM (active)
[3]
  EC50: 0.33 µM (active)
[4]
  EC50: 0.425 µM (active)
[5]
  EC50: 0.447 µM (active)
[6]
  EC50: < 0.1 µM (active)
H4
  EC50: < 0.1 µM (active)

## O=[N+]([O-])c1ccc(CNc2ccc(F)cc2)s1
[13]
  IC50: > 100 µM (active)
[14]
  CC50: > 40 µM (active)

## Cc1cc(C)cc(N2C(=O)CC(Sc3nnnn3-c3ccccc3)C2=O)c1 (centres undefined)
Beta-galactosidase
  IC50: > 66.6 µM (inactive)
Cytochrome P450 2C9
  AC50: inconclusive

## CNc1sc(C(=O)c2cccs2)c(N)c1-c1nc2ccccc2s1
[13]
  IC50: > 100 µM (active)
Vero
  CC50: > 40 µM (active)
[14]
  CC50: 19.1 µM (active)

## O=[N+]([O-])c1ccc(N2CCN(Cc3ccccc3)CC2)nc1
[9]
  IC50: 33.4 µM (not active)
[10]
  IC50: 22.8 µM (not active)

## CC(Sc1ccc2nnc(-c3ccc(F)cc3)n2n1)C(=O)O (centres undefined)
[15]
  IC50: 21 µM (active)

## CCOC(=O)C1=C(c2ccccc2)OC(N)=C(C#N)C1c1cccs1 (centres undefined)
[1]
  IC50: > 69.5 µM (not active)

## C=C1C(=O)O[C@@H]2C3OC3(C)CC/C=C(\C)CC[C@@H]12 (some centres undefined)
Cytochrome P450 3A4
  AC50: 31.6 µM (inconclusive)

## O=C(c1ccc2c(c1)OCO2)N(CC1CCCO1)C1(C(=O)NC2CCCC2)CCCCC1 (centres undefined)
[9]
  IC50: > 43.8 µM (not active)
[10]
  IC50: > 43.8 µM (not active)

## O=C(/C=C/c1cnc2ccccc2n1)NC12CC3CC(CC(C3)C1)C2
[3]
  EC50: 0.434 µM (active)
[4]
  EC50: 0.62 µM (active)
[5]
  EC50: 0.32 µM (active)
[6]
  EC50: < 0.1 µM (active)
H4
  EC50: 0.921 µM (active)

## CC1(C)CC(=O)c2cnc(N3CCc4ccccc4C3)nc2C1
[3]
  EC50: 0.284 µM (active)
[4]
  EC50: 0.283 µM (active)
[5]
  EC50: 0.268 µM (active)
[6]
  EC50: < 0.1 µM (inconclusive)

## COc1cc2c(cc1OC)-c1c(OC)c(OC)c(C=O)c3c1[C@H](C2)N(C)CC3
Cytochrome P450 3A4
  AC50: 7.94 µM (inconclusive)

## CCCN(CCC)CCOc1cc(C)ccc1C(C)C
[16]
  EC50: > 120 µM (not active)
[9]
  IC50: 10.9 µM (not active)
[10]
  IC50: 6.6 µM (active)
[17]
  EC50: > 120 µM (not active)
[18]
  EC50: > 120 µM (not active)

## CC(=O)c1ccc(NC(=O)c2ccc(NC(=O)c3ccco3)cc2)cc1
[15]
  IC50: 25.3 µM (active)

## CCN(CC)CCCn1c(-c2ccccc2)nc2c(N(CCOC)CCOC)nc(C)nc21
Cytochrome P450 3A4
  AC50: 20 µM (inconclusive)

## C[C@H](O)[C@@H]1C(=O)N2CCc3c([nH]c4ccccc34)[C@@H]2C[C@@H]1N(C)C(=O)c1cc(Cl)cc(Cl)c1
Kallikrein-7
  EC50: > 23.2 µM (inactive)

## CNc1cncc(-c2ccc(OC)cc2)n1
Kallikrein-7
  EC50: > 69.5 µM (inactive)

## COCCNC(=O)C[C@@H]1CC[C@H]2[C@@H](COC[C@H](O)CN2Cc2cccc(-c3ccncc3)c2)O1
[19]
  AC50: 32.6 µM (active)
HEK293
  AC50: 32.6 µM (active)

## C[C@@H]1CN([C@@H](C)CO)S(=O)(=O)c2ccc(C3=CCCC3)cc2O[C@@H]1CN(C)Cc1ccccc1F
[19]
  AC50: 23.9 µM (active)
HEK293
  AC50: 23.9 µM (active)

## CCCCN1CCCCC1C(=O)Nc1c(C)cccc1C (centres undefined) [BUPIVACAINE]
[19]
  AC50: 35.7 µM (active)
HEK293
  AC50: 35.7 µM (active)
